Drawing on patent US20240382600A1, “BIFUNCTIONAL DEGRADERS COMPRISING A TEAD BINDER” (Novartis AG, priority 2021, published 2024), this text covers IC50, GI50 and DC50 for seven compounds.

The test system of assay [1] is MKN-45/Ubc-luc cells (unspecific inhibition of luciferase expression or activity). Briefly: Reporter gene assay specificity control (Ubc-Luc), MKN-45. Type of assay: cell-based. To be noted: Homo sapiens; MKN-45/Ubc-luc specificity control, 24 hrs. In a few lines: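 MKN-45 cells stably carrying a ubiquitin C promoter–firefly luciferase construct, treated the day after seeding with eleven 2-fold compound dilutions (0.1% DMSO final) for 24 hrs at 37° C. Luminescence read 5 min after Steady Glo addition; cell-free background subtracted, as a control for nonspecific luciferase inhibition.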
For orientation: Reporter assays use an easily measured gene product as a stand-in for the process of interest.

In the next assay the test system is MKN-45/Ubc-luc cells. Briefly: Proliferation assay (resazurin/AlamarBlue), MKN-45. Type of assay: cell-based. To be noted: Homo sapiens; MKN-45, 72 hours. In a few lines:
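MKN-45 cells carrying constitutive Ubc-driven luciferase reporter, treated the day after seeding with eleven 2-fold dilutions (0.1% DMSO) for 72 h at 37 °C. Viability by resazurin, referenced to day-0 plate; GI50 from % growth (100 none, 0 stasis, −100 kill) and residual viability at top concentration.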
A general note: Resazurin is reduced to fluorescent resorufin, in cell work by metabolically active cells.

The subject of assay [2] is SF268-MCAT_Luc_dox-i-shYAPLevy (Clone 13) cells. In words: Proliferation assay (resazurin/AlamarBlue), SF268. To be noted: Homo sapiens, SF-268; SF268, 72 hours. In kind it is cell-based.
In assay [3] the test system is NCI-H2052 Tet-On shYAP_2371 pLenti6 MCAT_Luc cells. Briefly: Proliferation assay (resazurin/AlamarBlue), NCI-H2052. In kind it is cell-based. To be noted: Homo sapiens; NCI-H2052, 72 hours.
Assay [4] concerns the target Avi-humanTEAD4^217-434 / Cy5 labeled humanYAP^60-100 (Homo sapiens (Human), UniProt Q15561). Briefly: In-vitro biochemical TR-FRET assay (TEAD4/YAP). In kind it is binding. Conditions: 1 h at room temperature. For orientation: Time-resolved FRET reads energy transfer from a long-lived donor to a nearby acceptor.
For assay [5], the system named is YAP-dependent transcription in SF268-MCAT_Luc_dox-i-shYAPLevy (Clone 13) cells. In words: YAP reporter gene activity assay (MCAT-Luc), SF268. In kind it is cell-based. Conditions: Homo sapiens, SF-268; SF268 MCAT_Luc, 24 hrs.
Assay [6] concerns the target TEAD1-GFP in HEK293A cells (Homo sapiens (Human), UniProt P28347). Briefly: TEAD1 protein abundance flow cytometry assay in HEK293A. Type of assay: cell-based. Conditions: HEK293A TEAD1-GFP-CHYSEL-mCherry sensor cells, 24 h, GFP signal by flow cytometry. On the procedure:
Degradation of TEAD1 was measured in HEK293A cells (Invitrogen R70507) expressing TEAD1-GFP and mCherry from a stably integrated bicistronic TEAD1-GFP-CHYSEL-mCherry construct. Reduction of the GFP signal measured by flow cytometry served as readout for TEAD1 degradation after degrader treatment.
Stable HEK293A sensor cells were maintained in complete growth medium (DMEM high Glucose+10% FCS+1% L-Glutamine+1% NEAA+1% NaPyr.+4 μg/mL blasticidin) with passaging performed twice per week. On Day 0, stable HEK293A sensor cells were seeded at 5,000 cells/well in a 96-well microtiter plate in 100 μL complete medium. On Day 1, cells were treated in duplicate with 10-point 1:3 dilution series of compound using the HP D300 Digital Dispenser (Tecan). DMSO concentrations were normalized across the plate to 0.1%. On Day 2, after 24 h of incubation at 37° C., treatment media was discarded, cells rinsed with 100 μL/well PBS and then detached using 40 μL trypsin/well for 5 min. Trypsin was neutralized with 100 μL/well PBS+20% FCS).
Flow cytometry was performed on the samples using the CytoFlex S (Beckman Coulter). Cell identification was then performed using forward (FSC) vs. side scatter (SSC) plots. Single cell discrimination was performed using SSC-Width (SSC-W) vs. SSC-Height (SSCH) plots. Median GFP values for 2,500 single cells were used to determine TEAD1 levels. Median GFP values from HEK293A were used as a background signal and thus defining 0% TEAD1 signal. Median GFP values from DMSO treated HEK293A TEAD1-GFP CHYSEL-mCherry were used to define 100%
TEAD1 signal for subsequent DC50 curves (concentration at 50% TAED1 degradation). GFP and RFP were read in the channels called FITC and PE, respectively. Concentration response curves plotting relative reduction of the GFP signal (measured by flow cytometry) versus 10 compound concentrations (starting concentration 10 μM, 3 fold dilution steps) of the compounds allowed generation of DC50 values.

Assay [7] relates to YAP-dependent transcription in NCI-H2052 Tet-On shYAP_2371 pLenti6 MCAT_Luc cells. In words: YAP reporter gene activity assay (MCAT-Luc), NCI-H2052. Conditions: Homo sapiens, 24 hrs. Type of assay: cell-based.

Sequence of Avi-humanTEAD4^217-434 / Cy5 labeled humanYAP^60-100 (Q15561 217-434): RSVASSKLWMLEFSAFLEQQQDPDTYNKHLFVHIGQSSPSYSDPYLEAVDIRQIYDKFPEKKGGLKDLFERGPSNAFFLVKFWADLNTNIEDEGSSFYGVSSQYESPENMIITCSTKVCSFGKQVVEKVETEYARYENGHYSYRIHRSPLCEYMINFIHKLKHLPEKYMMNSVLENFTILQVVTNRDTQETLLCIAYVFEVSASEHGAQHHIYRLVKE
Sequence of TEAD1-GFP in HEK293A cells (P28347 whole entry): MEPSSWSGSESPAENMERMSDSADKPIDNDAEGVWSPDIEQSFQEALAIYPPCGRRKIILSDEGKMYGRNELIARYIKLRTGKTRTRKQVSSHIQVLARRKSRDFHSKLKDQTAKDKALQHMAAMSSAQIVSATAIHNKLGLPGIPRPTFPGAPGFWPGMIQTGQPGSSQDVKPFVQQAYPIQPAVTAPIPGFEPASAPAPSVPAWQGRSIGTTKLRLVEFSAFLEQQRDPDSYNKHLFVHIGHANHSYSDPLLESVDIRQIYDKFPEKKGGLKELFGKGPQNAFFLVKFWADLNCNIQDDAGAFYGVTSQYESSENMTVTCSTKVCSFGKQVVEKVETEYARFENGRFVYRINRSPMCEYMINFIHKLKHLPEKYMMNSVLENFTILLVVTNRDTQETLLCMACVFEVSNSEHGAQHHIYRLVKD

As for `COc1ccc(C(=O)N2CCC(CN3CCN(C(=O)[C@H]4CC[C@H](NC[C@]5(c6ccccc6)Oc6cc(F)c(Cl)c(-c7c(C(N)=O)ccc(OC)c7F)c6[C@@H]5C)CC4)CC3)CC2)cc1N1CCC(=O)NC1=O` (atropisomer, axis not shown) [Example 17, 2-((2S,3S,4S)-5-chloro-2-((((1r,4S)-4-(4-((1-(3-(2,4-dioxotetrahydropyrimidin-1(2H)-yl)-4-methoxybenzoyl)piperidin-4-yl)methyl)piperazine-1-carbonyl)cyclohexyl)amino)methyl)-6-fluoro-3-methyl-2-phenyl-2,3-dihydrobenzofuran-4-yl)-3-fluoro-4-methoxybenzamide], the IC50 is more than 2000 nM in assay [1], 1 nM in assay [4], 0.85 nM in assay [5] and 15 nM in assay [7]. For the same compound, the GI50 in the assay with MKN-45/Ubc-luc cells is more than 2000 nM; in assay [2], 49 nM; in assay [3] it was 62 nM. The same compound returned a DC50 in assay [6] of 4 nM.

Regarding `COc1ccc(C(N)=O)c(-c2c(Cl)c(F)cc3c2[C@H](C)[C@@](CN[C@H]2CC[C@H](C(=O)N4CCC(OC5CCN(C(=O)COc6ccc(N7CCC(=O)NC7=O)c(C)c6)CC5)CC4)CC2)(c2ccccc2)O3)c1F` (atropisomer, axis not shown) [Example 14, 2-((2S,3S,4S)-5-chloro-2-((((1r,4S)-4-(4-((1-(2-(4-(2,4-dioxotetrahydropyrimidin-1(2H)-yl)-3-methylphenoxy)acetyl)piperidin-4-yl)oxy)piperidine-1-carbonyl)cyclohexyl)amino)methyl)-6-fluoro-3-methyl-2-phenyl-2,3-dihydrobenzofuran-4-yl)-3-fluoro-4-methoxybenzamide], the 50% inhibitory concentration (IC50) in assay [1] was more than 2000 nM; in assay [4], 1.4 nM; in assay [5], 0.63 nM; in assay [7], 3.1 nM. The GI50 was more than 2000 nM with MKN-45/Ubc-luc cells, 35 nM in assay [2] and 11 nM in assay [3]. In addition, in assay [6], the DC50 was determined as 3 nM.

As to `COc1ccc(C(N)=O)c(-c2c(Cl)c(F)cc3c2[C@H](C)[C@@](CN[C@H]2CC[C@H](C(=O)N4CCC(C5CCN(C(=O)COc6ccc(C)c(N7CCC(=O)NC7=O)c6)CC5)CC4)CC2)(c2ccccc2)O3)c1F` (atropisomer, axis not shown) [Example 19, 2-((2S,3S,4S)-5-chloro-2-((((1r,4S)-4-(1′-(2-(3-(2,4-dioxotetrahydropyrimidin-1(2H)-yl)-4-methylphenoxy)acetyl)-[4,4′-bipiperidine]-1-carbonyl)cyclohexyl)amino)methyl)-6-fluoro-3-methyl-2-phenyl-2,3-dihydrobenzofuran-4-yl)-3-fluoro-4-methoxybenzamide], the IC50 in assay [1] is more than 2000 nM; in assay [4] it was 2.1 nM; in assay [5], 0.41 nM; in assay [7] it was 4.6 nM. Besides, the GI50 in the assay on MKN-45/Ubc-luc cells is more than 2000 nM; in assay [2] it was 29 nM; in assay [3], 12 nM. This compound also gave a DC50 in assay [6] of 0.5 nM.

As for `COc1ccc(C(=O)N2CCC(C3CCN(CCNC(=O)[C@H]4CC[C@H](NC[C@]5(c6ccccc6)Oc6cc(F)c(Cl)c(-c7c(C(N)=O)ccc(OC)c7F)c6[C@@H]5C)CC4)CC3)CC2)cc1N1CCC(=O)NC1=O` (atropisomer, axis not shown) [Example 11, 2-((2S,3S,4S)-5-chloro-2-((((1r,4S)-4-((2-(1′-(3-(2,4-dioxotetrahydropyrimidin-1(2H)-yl)-4-methoxybenzoyl)-[4,4′-bipiperidin]-1-yl)ethyl)carbamoyl)cyclohexyl)amino)methyl)-6-fluoro-3-methyl-2-phenyl-2,3-dihydrobenzofuran-4-yl)-3-fluoro-4-methoxybenzamide], the IC50 is more than 20000 nM in assay [1], less than 1 nM in assay [4], 1.4 nM in assay [5] and 91 nM in assay [7]. Further, the GI50 in the assay with MKN-45/Ubc-luc cells is more than 20000 nM; in assay [2] it was 51 nM; in assay [3], 280 nM. The DC50 in assay [6] was found to be 11 nM.

Consider `COc1ccc(C(N)=O)c(-c2c(Cl)c(F)cc3c2[C@H](C)[C@@](CN[C@H]2CC[C@H](C(=O)NCCOCCOCCOCCNC(=O)COc4cc(-c5scnc5C)ccc4CNC(=O)[C@@H]4C[C@@H](O)CN4C(=O)[C@@H](NC(=O)C4(F)CC4)C(C)(C)C)CC2)(c2ccccc2)O3)c1F` (atropisomer, axis not shown) [Example 40, (2S,4R)-N-(2-((1-((1S,4r)-4-((((2S,3S,4S)-4-(6-carbamoyl-2-fluoro-3-methoxyphenyl)-5-chloro-6-fluoro-3-methyl-2-phenyl-2,3-dihydrobenzofuran-2-yl)methyl)amino)cyclohexyl)-1,15-dioxo-5,8,11-trioxa-2,14-diazahexadecan-16-yl)oxy)-4-(4-methylthiazol-5-yl)benzyl)-1-((S)-2-(1-fluorocyclopropane-1-carboxamido)-3,3-dimethylbutanoyl)-4-hydroxypyrrolidine-2-carboxamide], for which the IC50 in assay [1] is more than 20000 nM; in assay [4], 4.7 nM; in assay [5] it was 47 nM; in assay [7], 160 nM. Also, the concentration for 50% growth inhibition (GI50) with MKN-45/Ubc-luc cells was more than 20000 nM; in assay [2] it was 1860 nM; in assay [3], 410 nM. Further, in assay [6], the DC50 amounted to 20 nM.

For `COc1ccc(C(=O)N2CCC3(CCN(CCNC(=O)[C@H]4CC[C@H](NC[C@]5(c6ccccc6)Oc6cc(F)c(Cl)c(-c7c(C(N)=O)ccc(OC)c7F)c6[C@@H]5C)CC4)CC3)CC2)cc1N1CCC(=O)NC1=O` (atropisomer, axis not shown) [Example 5, 2-((2S,3S,4S)-5-chloro-2-((((1r,4S)-4-((2-(9-(3-(2,4-dioxotetrahydropyrimidin-1(2H)-yl)-4-methoxybenzoyl)-3,9-diazaspiro[5.5]undecan-3-yl)ethyl)carbamoyl)cyclohexyl)amino)methyl)-6-fluoro-3-methyl-2-phenyl-2,3-dihydrobenzofuran-4-yl)-3-fluoro-4-methoxybenzamide], the IC50 in assay [1] is more than 20000 nM; in assay [4], less than 1 nM; in assay [5], 2.5 nM; in assay [7], 160 nM. Also, the concentration for 50% growth inhibition (GI50) in the assay with MKN-45/Ubc-luc cells is more than 20000 nM; in assay [2], 89 nM; in assay [3], 360 nM. The DC50 in assay [6] stood at 35 nM.

As for `COc1ccc(C(=O)N2CCC(CC3CCN(C(=O)[C@H]4CC[C@H](NC[C@]5(c6ccccc6)Oc6cc(F)c(Cl)c(-c7c(C(N)=O)ccc(OC)c7F)c6[C@@H]5C)CC4)CC3)CC2)cc1N1CCC(=O)NC1=O` (atropisomer, axis not shown) [Example 1, 2-((2S,3S,4S)-5-chloro-2-((((1r,4S)-4-(4-((1-(3-(2,4-dioxotetrahydropyrimidin-1(2H)-yl)-4-methoxybenzoyl)piperidin-4-yl)methyl)piperidine-1-carbonyl)cyclohexyl)amino)methyl)-6-fluoro-3-methyl-2-phenyl-2,3-dihydrobenzofuran-4-yl)-3-fluoro-4-methoxybenzamide], the IC50 in assay [1] was more than 20000 nM; in assay [4] it was 1.9 nM; in assay [5], 0.3 nM; in assay [7] it was 3.6 nM. The 50% growth inhibitory concentration (GI50) in the assay on MKN-45/Ubc-luc cells is 11000 nM; in assay [2], 14 nM; in assay [3], 15 nM. The DC50 in assay [6] came to 0.6 nM.

A word on the IC50: it is the concentration that inhibits the measured activity by half. Low values mean inhibition by little substance, high ones a need for much substance. One may read the GI50 as the concentration giving 50% growth inhibition. A higher GI50 goes with less potent growth inhibition.
